Laboratory results as given in patent publication US20100093662A1, “NOVEL AMPHIPHILIC CYCLODEXTRIN DERIVATIVES” (CENTRE NATIONAL DE LA RECHERCHE SCIENTIFIQUE-CNRS-, priority 2006, published 2010).

Experiment: Size and polydispersion of white homogenous nanospheres (quasi-elastic diffusion of light), physical stability over time
Type: physicochemical
Procedure: The method used to prepare white homogenous nanospheres consists in introducing an organic phase of acetone (or tetrahydrofurane) and an amphiphilic cyclodextrin derivative from the invention (1 mg·mL^−1) in an aqueous phase of equivalent volume or a double volume (distilled water), under magnetic stirring (500 r.p.m.) at 25° C. After nanoprecipitation, the organic solvent is eliminated under reduced pressure at +35° C. The aqueous suspension presenting an opalescent to milky appearance (according to the products used) is then concentrated until the final volume desired is obtained, then filtered on a 0.8 μm filter (Millex AA, Millipore, France).
The colloid suspensions are then characterised as regards the granulometry (mean size and polydisperion) and, when they incorporate loaded amphiphilic cyclodextrins, by their zeta potential. The characterisation is carried out using the following methods:
The quasi-elastic diffusion of light is used. A Zetasizer 3000 apparatus equipped with a K7132 correlator (Malvern Instruments, RU) was used. The conditions for measurement are as follows: angle of detection 90°, temperature 25±0.1° C., apparent viscosity 0.89 mPa·s. Before measuring the size, samples are diluted in distilled water if necessary. The hydrodynamic diameter (mean Z) and polydispersion index (PI) of the nanoparticles in suspension are calculated in intensity by the cumulant method by carrying out 3 measurements on the same sample. The value of the hydrodynamic diameter is calculated using the measurement of the translational coefficient of diffusion of particles with Brownian movement. An NanoZS apparatus (Malvern Instruments) was also used to measure the size of the nanocapsules. In the same way, the samples are diluted before measurement, if necessary in water added to Montanox 80 (trade mark).
The studies on the physical stability of particles were carried out over periods ranging from 1 month to 8 months. The corresponding data for a series of amphiphilic cyclodextrins in the invention are indicated in Table 1 providing the granulometric characteristics (mean size and polydispersion index or mean PI), with evolution over time, of different homogenous nanospheres derived from the compounds indicated in the left column, the reference number for said compounds corresponding to those of the compounds described in the above examples.

Row | SMILES | Mean size ± standard deviation (n = 3) (8 months) | PI (polydispersion index) (8 months) | Mean size ± standard deviation (n = 3) (initial) | PI (polydispersion index) (initial) | IP (polydispersion index) (3 months) | Mean size ± standard deviation (n = 3) (3 months) | IP (polydispersion index) (6 months) | Mean size ± standard deviation (n = 3) (6 months)
1 | CCCCCC(=O)O[C@@H]1[C@@H](OC(=O)CCCCC)[C@H]2O[C@H]3[C@H](OC(=O)CCCCC)[C@@H](OC(=O)CCCCC)[C@@H](O[C@H]4[C@H](OC(=O)CCCCC)[C@@H](OC(=O)CCCCC)[C@@H](O[C@H]5[C@H](OC(=O)CCCCC)[C@@H](OC(=O)CCCCC)[C@@H](O[C@H]6[C@H](OC(=O)CCCCC)[C@@H](OC(=O)CCCCC)[C@@H](O[C@H]7[C@H](OC(=O)CCCCC)[C@@H](OC(=O)CCCCC)[C@@H](O[C@H]8[C@H](OC(=O)CCCCC)[C@@H](OC(=O)CCCCC)[C@@H](O[C@@H]1[C@@H](CI)O2)O[C@@H]8CI)O[C@@H]7CI)O[C@@H]6CI)O[C@@H]5CI)O[C@@H]4CI)O[C@@H]3CI [compound no. 1, heptakis(6-desoxy-2,3-di-0-hexanoyl-6-iodo) cyclomaltoheptaose] | 236 ± 13 nm | 0.03 | 251 ± 62 nm | 0.08 | – | – | – | –
2 | CCCCCC(=O)O[C@@H]1[C@@H](OC(=O)CCCCC)[C@H]2O[C@H]3[C@H](OC(=O)CCCCC)[C@@H](OC(=O)CCCCC)[C@@H](O[C@H]4[C@H](OC(=O)CCCCC)[C@@H](OC(=O)CCCCC)[C@@H](O[C@H]5[C@H](OC(=O)CCCCC)[C@@H](OC(=O)CCCCC)[C@@H](O[C@H]6[C@H](OC(=O)CCCCC)[C@@H](OC(=O)CCCCC)[C@@H](O[C@H]7[C@H](OC(=O)CCCCC)[C@@H](OC(=O)CCCCC)[C@@H](O[C@H]8[C@H](OC(=O)CCCCC)[C@@H](OC(=O)CCCCC)[C@@H](O[C@@H]1[C@@H](CBr)O2)O[C@@H]8CBr)O[C@@H]7CBr)O[C@@H]6CBr)O[C@@H]5CBr)O[C@@H]4CBr)O[C@@H]3CBr [compound no. 2, heptakis(6-bromo-6-desoxy-2,3-di-O-hexanoyl)cyclomaltoheptaose] | 182 ± 22 nm | 0.01 | 238 ± 29 nm | 0.02 | – | – | – | –
3 | CCCCCC(=O)O[C@@H]1[C@@H](OC(=O)CCCCC)[C@H]2O[C@H]3[C@H](OC(=O)CCCCC)[C@@H](OC(=O)CCCCC)[C@@H](O[C@H]4[C@H](OC(=O)CCCCC)[C@@H](OC(=O)CCCCC)[C@@H](O[C@H]5[C@H](OC(=O)CCCCC)[C@@H](OC(=O)CCCCC)[C@@H](O[C@H]6[C@H](OC(=O)CCCCC)[C@@H](OC(=O)CCCCC)[C@@H](O[C@H]7[C@H](OC(=O)CCCCC)[C@@H](OC(=O)CCCCC)[C@@H](O[C@H]8[C@H](OC(=O)CCCCC)[C@@H](OC(=O)CCCCC)[C@@H](O[C@@H]1[C@@H](CN=[N+]=[N-])O2)O[C@@H]8CN=[N+]=[N-])O[C@@H]7CN=[N+]=[N-])O[C@@H]6CN=[N+]=[N-])O[C@@H]5CN=[N+]=[N-])O[C@@H]4CN=[N+]=[N-])O[C@@H]3CN=[N+]=[N-] [compound no. 3, heptakis(6-azido-6-desoxy-2,3-di-O-hexanoyl)cyclomaltoheptaose] | – | – | 181 ± 5 nm | 0.08 | 0.06 | 157 ± 8 nm | 0.18 | 206 ± 17 nm
4 | CCCCCCCCCCCCCC(=O)O[C@@H]1[C@@H](OC(=O)CCCCCCCCCCCCC)[C@H]2O[C@H]3[C@H](OC(=O)CCCCCCCCCCCCC)[C@@H](OC(=O)CCCCCCCCCCCCC)[C@@H](O[C@H]4[C@H](OC(=O)CCCCCCCCCCCCC)[C@@H](OC(=O)CCCCCCCCCCCCC)[C@@H](O[C@H]5[C@H](OC(=O)CCCCCCCCCCCCC)[C@@H](OC(=O)CCCCCCCCCCCCC)[C@@H](O[C@H]6[C@H](OC(=O)CCCCCCCCCCCCC)[C@@H](OC(=O)CCCCCCCCCCCCC)[C@@H](O[C@H]7[C@H](OC(=O)CCCCCCCCCCCCC)[C@@H](OC(=O)CCCCCCCCCCCCC)[C@@H](O[C@H]8[C@H](OC(=O)CCCCCCCCCCCCC)[C@@H](OC(=O)CCCCCCCCCCCCC)[C@@H](O[C@@H]1[C@@H](CI)O2)O[C@@H]8CI)O[C@@H]7CI)O[C@@H]6CI)O[C@@H]5CI)O[C@@H]4CI)O[C@@H]3CI [compound no. 4, heptakis(6-desoxy-6-iodo-2,3-di-O-myristoyl)cyclomaltoheptaose] | – | – | 217 ± 17 nm | 0.04 | 0.03 | 206 ± 20 nm | 0.06 | 227 ± 26 nm
5 | CCCCCCCCCCCCCC(=O)O[C@@H]1[C@@H](OC(=O)CCCCCCCCCCCCC)[C@H]2O[C@H]3[C@H](OC(=O)CCCCCCCCCCCCC)[C@@H](OC(=O)CCCCCCCCCCCCC)[C@@H](O[C@H]4[C@H](OC(=O)CCCCCCCCCCCCC)[C@@H](OC(=O)CCCCCCCCCCCCC)[C@@H](O[C@H]5[C@H](OC(=O)CCCCCCCCCCCCC)[C@@H](OC(=O)CCCCCCCCCCCCC)[C@@H](O[C@H]6[C@H](OC(=O)CCCCCCCCCCCCC)[C@@H](OC(=O)CCCCCCCCCCCCC)[C@@H](O[C@H]7[C@H](OC(=O)CCCCCCCCCCCCC)[C@@H](OC(=O)CCCCCCCCCCCCC)[C@@H](O[C@H]8[C@H](OC(=O)CCCCCCCCCCCCC)[C@@H](OC(=O)CCCCCCCCCCCCC)[C@@H](O[C@@H]1[C@@H](CBr)O2)O[C@@H]8CBr)O[C@@H]7CBr)O[C@@H]6CBr)O[C@@H]5CBr)O[C@@H]4CBr)O[C@@H]3CBr [compound no. 5, heptakis(6-bromo-6-desoxy-2,3-di-O-myristoyl)cyclomaltoheptaose] | – | – | 244 ± 13 nm | 0.13 | 0.05 | 232 ± 22 nm | 0.03 | 242 ± 27 nm
6 | CCCCCC(=O)O[C@@H]1[C@@H](OC(=O)CCCCC)[C@H]2O[C@H]3[C@H](OC(=O)CCCCC)[C@@H](OC(=O)CCCCC)[C@@H](O[C@H]4[C@H](OC(=O)CCCCC)[C@@H](OC(=O)CCCCC)[C@@H](O[C@H]5[C@H](OC(=O)CCCCC)[C@@H](OC(=O)CCCCC)[C@@H](O[C@H]6[C@H](OC(=O)CCCCC)[C@@H](OC(=O)CCCCC)[C@@H](O[C@H]7[C@H](OC(=O)CCCCC)[C@@H](OC(=O)CCCCC)[C@@H](O[C@H]8[C@H](OC(=O)CCCCC)[C@@H](OC(=O)CCCCC)[C@@H](O[C@@H]1[C@@H](CSCCNC(=O)OC(C)(C)C)O2)O[C@@H]8CSCCNC(=O)OC(C)(C)C)O[C@@H]7CSCCNC(=O)OC(C)(C)C)O[C@@H]6CSCCNC(=O)OC(C)(C)C)O[C@@H]5CSCCNC(=O)OC(C)(C)C)O[C@@H]4CSCCNC(=O)OC(C)(C)C)O[C@@H]3CSCCNC(=O)OC(C)(C)C [compound no. 7, heptakis[6-(2-tert-butoxycarbonylaminoethylthio)-6-desoxy-2,3-di-0-hexanoyl]cyclomaltoheptaose] | 194 ± 2 nm | 0.02 | 283 ± 29 nm | 0.06 | – | – | – | –
7 | CCCCCC(=O)O[C@@H]1[C@@H](OC(=O)CCCCC)[C@H]2O[C@H]3[C@H](OC(=O)CCCCC)[C@@H](OC(=O)CCCCC)[C@@H](O[C@H]4[C@H](OC(=O)CCCCC)[C@@H](OC(=O)CCCCC)[C@@H](O[C@H]5[C@H](OC(=O)CCCCC)[C@@H](OC(=O)CCCCC)[C@@H](O[C@H]6[C@H](OC(=O)CCCCC)[C@@H](OC(=O)CCCCC)[C@@H](O[C@H]7[C@H](OC(=O)CCCCC)[C@@H](OC(=O)CCCCC)[C@@H](O[C@H]8[C@H](OC(=O)CCCCC)[C@@H](OC(=O)CCCCC)[C@@H](O[C@@H]1[C@@H](CSCCN=C=S)O2)O[C@@H]8CSCCN=C=S)O[C@@H]7CSCCN=C=S)O[C@@H]6CSCCN=C=S)O[C@@H]5CSCCN=C=S)O[C@@H]4CSCCN=C=S)O[C@@H]3CSCCN=C=S [compound no. 9, heptakis[6-desoxy-2,3-di-0-hexanoyl-6-(2-isothiocyanatoethylthio)]cyclomaltoheptaose] | – | – | 123 ± 2 nm | 0.03 | 0.09 | 138 ± 2 nm | – | –
8 | CCCCCC(=O)OC1C2OC(CSCCNC(=S)NC)C(OC3OC(CSCCNC(=S)NC)C(OC4OC(CSCCNC(=S)NC)C(OC5OC(CSCCNC(=S)NC)C(OC6OC(CSCCNC(=S)NC)C(OC7OC(CSCCNC(=S)NC)C(OC8OC(CSCCNC(=S)NC)C(O2)C(OC(=O)CCCCC)C8OC(=O)CCCCC)C(OC(=O)CCCCC)C7OC(=O)CCCCC)C(OC(=O)CCCCC)C6OC(=O)CCCCC)C(OC(=O)CCCCC)C5OC(=O)CCCCC)C(OC(=O)CCCCC)C4OC(=O)CCCCC)C(OC(=O)CCCCC)C3OC(=O)CCCCC)C1OC(=O)CCCCC (stereo not drawn) [compound no. 13, heptakis[6-desoxy-2,3-di-0-hexanoyl-6-(2-(N′-methylthioureido)ethylthio)]cyclomaltoheptaose] | – | – | 115 ± 31 nm | 0.16 | – | – | – | –
